In general, melting point refers to the temperature, or range, at which the solid turns liquid.

For 58 compounds, melting point results are on record in a melting point compilation (Tetko et al.; mined from patent text by program, amines drawn as free bases though some values may be those of a salt).

`Cn1cc(Br)cc(Nc2ccc(N3CCN(C(=O)OC(C)(C)C)CC3=O)cn2)c1=O` registered a melting point of 130 to 132 °C.
The same measure for `O=c1cnn(-c2ccc(C(c3ccc(Cl)cc3)c3nc(-c4ccccc4)cs3)c(Cl)c2)c(=O)[nH]1` (stereo not drawn): 90 °C.
In the case of `CCc1cc(=O)c(C(=O)OC)c(C)[nH]1` it was 176 to 180 °C; in that of `CC(C)(C)C(=O)Oc1ccc(C(=O)c2ccc(OC(=O)C(C)(C)C)cc2OC(=O)C(C)(C)C)c(OC(=O)C(C)(C)C)c1`, 154 to 156 °C; in that of `CC(C)(C)OC(=O)N1CCC[C@@H](OC(=O)c2ccc(C(=O)c3ccccc3)cc2)[C@H](NC(=O)c2ccc(OC(C)(C)C)cc2)C1`, 145 to 148 °C.
The same measure for `O=C(NCCCCCCCCCCCCOC(=O)Oc1ccc([N+](=O)[O-])cc1)OC1CCN(C(=O)Oc2ccc(Oc3ccccc3)cc2)CC1`: 96 to 98 °C; for `COc1cc(OC)c2c(=O)[nH]c(-c3cc(C)c(OCCN4CCCC4)c(C)c3)nc2c1`: 181 to 183 °C; for `Cn1nc(C(=O)OCC23CCCN(CC2)C3)c2ccccc21` (stereo not drawn): 93 to 95 °C.
Consider `O=C1COc2ccc(-c3cnn(CC(F)(F)F)c3-c3ccc(F)cc3)cc2N1`, for which the melting point worked out at 227 °C.
The same measure for `C=CCc1cc(-c2csc(-c3ccc(OCC)c(OCC)c3)n2)cc(C(=O)OC)c1O`: 118 to 119 °C; for `CCCOCCOc1cc2c(-c3ccccc3)c(CC(=O)Nc3ccc(Cl)cc3C(F)(F)F)c(=O)oc2cc1Cl`: 170 to 171 °C.
Compound `O=C1c2ccccc2C(=O)N1OCc1ccc2c(c1F)OC(c1ccccc1)(c1ccccc1)O2` gave a melting point of 177 to 179 °C.
In the case of `O=C1NCc2c(Cl)nc3ccccc3c21` it was 169 to 171 °C; in that of `CCc1nn(C[C@@H]2CCCN2C)c(C(N)=O)c1[N+](=O)[O-]`, 148 to 150 °C; in that of `CCn1c(=O)c2c(nc(/C=C/c3ccc(OCC(=O)O)cc3)n2C)n(CC)c1=O`, 268 to 269 °C.
Compound `CCCCCCCOc1ccc(-c2ccc(N=Nc3ccc(N=Nc4ccc(N(C)C)cc4)cc3)cc2)cc1` yielded a melting point of 201 to 203 °C.
Turning to `CCC(=O)C1=C(O)CC(c2ccc3ccccc3c2)CC1=O` (stereo not drawn), the melting point was 125 °C.
In the case of `O=C(c1ccc(OS(=O)(=O)C(F)(F)F)cc1OS(=O)(=O)C(F)(F)F)c1ccc(OS(=O)(=O)C(F)(F)F)cc1OS(=O)(=O)C(F)(F)F` it was 94 to 96 °C; in that of `COC1C(NC(=O)C(F)(F)F)CC(OC2CC(O)(CO)Cc3c(O)c4c(c(O)c32)C(=O)c2ccccc2C4=O)OC1C` (stereo not drawn), 262 to 263 °C.
In the case of `COC(=O)c1ccc(CCN(C)CCCC(C#N)(C(=O)OC)c2ccc(OC)c(OC)c2)cc1` (stereo not drawn) it was 80 to 83 °C.
In the case of `Fc1cc(OCc2ccccc2)ccc1-c1ncc(Br)cn1` it was 124 °C; in that of `CCOC(=O)CCC(=O)Oc1cc([N+](=O)[O-])cc([N+](=O)[O-])c1OC(=O)CCC(=O)OCC`, 60 to 63 °C.
For `NC(=O)c1ccc2[nH]nnc2c1`, the melting point lay within 178 to 184 °C.
`COc1ccc(S(=O)(=O)N2CCc3cccc(-c4ccc(Cl)cc4)c32)cc1` registered a melting point of 177 to 178 °C.
Consider `COc1cc2c(c3c1OC(C)(C)C3)C(c1ccn(CC(=O)NCC(N)=O)c(=O)c1)=NC(C)(C)C2`, for which the melting point was in the range of 166 to 168 °C.
The same measure for `O=C(O)C(Sc1ccccc1)c1ccc(Oc2ccc(Cl)cc2)cc1` (stereo not drawn): 156 to 158 °C.
In the case of `COC(=O)C(Cc1ccc(Cl)cc1Cl)=NO` it was 97 to 100 °C.
As to `Cn1cccc(O)c1=O`, the melting point lay in the range of 129 to 131 °C.
As to `O=C1c2ccccc2S(=O)(=O)c2c1cccc2-c1nnn[nH]1`, the melting point stood at 271 °C.
The same measure for `CCN1c2ncc(CCc3cccc(N)c3)cc2C(=O)N(C)c2cccnc21`: 129 to 131 °C; for `CCc1n[nH]c(CC)c1Cc1cc(C#N)cc(C#N)c1`: 141 to 143 °C.
The same measure for `CCOC(=O)c1c2n(c3cc(N4CCN(C)CC4)c(F)cc3c1=O)CCCC2`: 163 to 165 °C.
In the case of `CCCCN(CC(=O)OCc1ccccc1)S(=O)(=O)c1ccc(N2CCC(NC[C@H](O)c3ccc(O)c(NS(C)(=O)=O)c3)CC2)cc1` it was 59 to 64 °C.
The compound `CC(=O)N1c2ccccc2Sc2c1ccc(O)c2Cl` yielded a melting point of 214 °C.
In the case of `CCOC(=O)CCC1CCCN2CCc3c([nH]c4ccccc34)C12` (stereo not drawn) it was 72 to 74 °C; in that of `ClCc1coc(C=C(c2ccccc2)c2ccccc2)n1`, 107 to 108 °C; in that of `O=c1ccc(-c2c(-c3ccccc3)nn3ccccc23)nn1C1=C(CCO)CCCC1`, 198 to 199 °C.
The same measure for `COc1cccc(COc2ncc(F)c(N/N=C/c3cccs3)n2)c1`: 136 to 139 °C; for `CC(C)C(C(=O)O)c1ccc(OC(F)F)cc1` (stereo not drawn): 63 °C; for `CCOC(=O)C1=Cc2cc(Cl)cc(I)c2OC1C(F)(F)F` (stereo not drawn): 92.1 to 93.9 °C.
In the case of `CCOC(=O)c1sc(=O)[nH]c1-c1cccc(C(F)(F)F)c1` it was 168 to 171 °C; in that of `C=CC1(C)OC(=O)c2ccc(Oc3ccc(C(F)(F)F)cc3Cl)cc21` (stereo not drawn), 71 to 73 °C.
The compound `O=c1oc2ccccc2c2c1CN(CCN1CC3CCCC(C3)C1)CC2` showed a melting point of 129 to 130 °C.
The same measure for `Cc1c(NC(=O)c2ccc(OC[C@@H]3CCCO3)cc2)ccc2cc(CN3CCC(C)(O)CC3)[nH]c12`: 169 °C; for `CN1CCN(c2cc(Cl)cc3c2c(=O)n(Cc2ccccc2)c(=O)n3C)CC1`: 132 to 136 °C; for `COCn1cc(C2=C(c3cn(C)c4cc([N+](=O)[O-])ccc34)C(=O)NC2=O)c2ccccc21`: over 250 °C.
`Cc1c(Cl)cccc1N=Cc1ccccc1Cl` had a melting point of 83 to 85 °C.
Turning to `CCOC(=O)C(C)(C)Oc1ccc(C(=O)Nc2ccccc2Sc2ccccc2-c2nnn[nH]2)cc1`, the melting point was 157 to 158 °C.
In the case of `O=C(O)CCCCc1cc2cc(Cl)ccc2n1S(=O)(=O)c1ccccc1`, the melting point lay within 144 to 148 °C.
The same measure for `Cc1ccc(=NS(=O)(=O)C(F)(F)F)n(-c2cccc(C(F)(F)F)c2)c1`: 206 °C; for `O=C1Cc2cc(C3=NNC(=O)SC3)ccc2N1`: over 310 °C; for `C=CCC(C)(C)C(=O)O[C@H]1C[C@H](O)C=C2C=C[C@H](C)[C@H](CCC3CC(O)CC(=O)O3)[C@H]21` (stereo partly drawn): 141 to 142 °C.
In the case of `CCN(CC)c1ccc2nc(C)c(C#N)c(O)c2c1` it was over 250 °C; in that of `Cc1ccc(S(=O)(=O)OC[C@@H]2CCCN(C)C2)cc1`, 74.5 to 81 °C; in that of `COc1cccc(C(C)CC(=O)Nc2sc3c(c2C#N)CCNC3)c1` (racemic), 197 to 200 °C.
The same measure for `Clc1nc(NCc2ccc(-c3ccccn3)cc2)c2[nH]cnc2n1`: over 250 °C; for `Cc1c(Cc2ccc(C(C)C)cc2)c2c(c(C)c1NC(=O)CC(C)(C)C)C(C)(O)C(C)(C)O2` (stereo not drawn): 170 to 171 °C.
Take `N#Cc1cccc2c1CCc1ccsc1-2`: the melting point lay in the range of 74.5 to 75 °C.
